Experiment [1] relates to U87MG pLVX-IDH2 R140Q-neo cells. Kind of experiment: U87MG pLVX-IDH2 R140Q-neo cell based assay, 2-HG in media by LC-MS at 48 hours. To be noted: for IC50: Homo sapiens, U-87 MG. Here is the method:
U87MG pLVX-IDH2 R140Q-neo cells are grown in T125 flasks in DMEM containing 10% FBS, 1× penicillin/streptomycin and 500 μg/mL G418. They are harvested by trypsin and seeded into 96 well white bottom plates at a density of 5000 cell/well in 100 μl/well in DMEM with 10% FBS. No cells are plated in columns 1 and 12. Cells are incubated overnight at 37° C. in 5% CO2. The next day compounds are made up at 2× concentration and 100 ul are added to each cell well. The final concentration of DMSO is 0.2% and the DMSO control wells are plated in row G. The plates are then placed in the incubator for 48 hours. At 48 hours, 100 ul of media is removed from each well and analyzed by LC-MS for 2-HG concentrations. The cell plate is placed back in the incubator for another 24 hours. At 72 hours post compound addition, 10 mL/plate of Promega Cell Titer Glo reagent is thawed and mixed. The cell plate is removed from the incubator and allowed to equilibrate to room temperature. Then 100 ul of reagent is added to each well of media. The cell plate is then placed on an orbital shaker for 10 minutes and then allowed to sit at room temperature for 20 minutes. The plate is then read for luminescence with an integration time of 500 ms to determine compound effects on growth inhibition.

The next experiment deals with T1, IDH2 R140Q (Homo sapiens, UniProt P48735, R140Q).
T1 sequence (P48735 40-452 R140Q): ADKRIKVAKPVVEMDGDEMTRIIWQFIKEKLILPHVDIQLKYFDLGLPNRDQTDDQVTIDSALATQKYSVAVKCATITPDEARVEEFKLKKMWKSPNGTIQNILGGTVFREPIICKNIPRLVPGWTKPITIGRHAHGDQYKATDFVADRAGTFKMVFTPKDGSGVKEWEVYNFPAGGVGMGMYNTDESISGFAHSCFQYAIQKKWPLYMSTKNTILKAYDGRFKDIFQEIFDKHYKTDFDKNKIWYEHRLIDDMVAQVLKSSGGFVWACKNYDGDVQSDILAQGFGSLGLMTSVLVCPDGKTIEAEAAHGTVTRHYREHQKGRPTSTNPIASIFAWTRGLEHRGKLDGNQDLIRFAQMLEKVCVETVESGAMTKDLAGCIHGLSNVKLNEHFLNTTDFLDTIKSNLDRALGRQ
The experiment can be described thus: IDH2 R140Q enzymatic assay (cofactor depletion, similar format). Type of experiment: biochemical. As to conditions: for IC50: read-out: Enz R140Q. Here is the method:
[The source words this procedure for another variant and says it was used here with some conditions changed.] Compounds are assayed for IDH2 R172K inhibitory activity through a cofactor depletion assay. […] The reaction is terminated by the addition of a second enzyme, diaphorase, and a corresponding substrate, resazurin. Diaphorase reduces resazurin to the highly fluorescent resorufin with the concomitant oxidation of NADPH to NADP, both halting the IDH2 reaction by depleting the available cofactor pool and facilitating quantitation of the amount of cofactor remaining after a specific time period through quantitative production of an easily detected fluorophore.
The test compound is then incubated for one hour at room temperature with the enzyme; before starting the IDH2 reaction with the addition of 10 μl of substrate mix containing 50 μM NADPH and 6.3 mM α-KG in the buffer described above. After a further one hour of incubation at room temperature, the reaction is halted and the remaining NADPH measured through conversion of resazurin to resorufin by the addition of 25 μl Stop Mix (36 μg/ml diaphorase enzyme and 60 μM resazurin; in buffer).

Take `N#CC1(Nc2nc(Nc3ccncc3)nc(-c3ccccc3)n2)CCC1` [Compound 284, 1-(4-phenyl-6-(pyridin-4-ylamino)-1,3,5-triazin-2-ylamino)cyclobutanecarbonitrile]: the IC50 (in experiment [1]; at IDH2 R140Q) was 100 to 1000 nM in each case.

Take `Cc1cc(Nc2nc(NC(C)C)nc(-c3ccccc3)n2)ccn1` [Compound 288, N^2-isopropyl-N^4-(2-methylpyridin-4-yl)-6-phenyl-1,3,5-triazine-2,4-diamine]: the IC50 (in experiment [1]; at IDH2 R140Q) was under 100 nM in each case.

Regarding `CC(C)Nc1nc(Nc2ccc(Cl)nc2)nc(-c2ccccc2)n1` [Compound 289, N^2-(6-chloropyridin-3-yl)-N^4-isopropyl-6-phenyl-1,3,5-triazine-2,4-diamine], the figures for the IC50 (in experiment [1]; at IDH2 R140Q) were 100 to 1000 nM and under 100 nM, respectively.

Consider `CC(C)Nc1nc(Nc2ccccc2)nc(-c2cccc(N)n2)n1` [Compound 290, 6-(6-aminopyridin-2-yl)-N^2-isopropyl-N^4-phenyl-1,3,5-triazine-2,4-diamine], for which the IC50 is under 100 nM in experiment [1] and 100 to 1000 nM at IDH2 R140Q.

In the case of `CCC(CO)Nc1nc(Nc2ccncc2)nc(-c2ccccc2)n1` (centres unmarked) [Compound 291, 2-(4-phenyl-6-(pyridin-4-ylamino)-1,3,5-triazin-2-ylamino)butan-1-ol], in experiment [1], the “Cell R140Q” value was “No Fit”. Further, the “Enz R140Q” value on IDH2 R140Q is recorded as “No Fit”.

`CC(C)Nc1nc(Nc2ccncc2F)nc(-c2ccccc2)n1` [Compound 292, N^2-(3-fluoropyridin-4-yl)-N^4-isopropyl-6-phenyl-1,3,5-triazine-2,4-diamine]: the “Cell R140Q” value in experiment [1] is “No Fit”. Further, the “Enz R140Q” value at IDH2 R140Q is “No Fit”.

In the case of `CC(C)Nc1nc(Nc2ccnc(N(C)C)c2)nc(-c2ccccc2)n1` [Compound 293, N^2-(2-(dimethylamino)pyridin-4-yl)-N^4-isopropyl-6-phenyl-1,3,5-triazine-2,4-diamine], the IC50 (in experiment [1]; on IDH2 R140Q) was under 100 nM throughout.

Consider `OCCNc1nc(Nc2ccncc2)nc(-c2ccccc2)n1` [Compound 294, 2-(4-phenyl-6-(pyridin-4-ylamino)-1,3,5-triazin-2-ylamino)ethanol], for which, in experiment [1], the “Cell R140Q” value was “No Fit”. For the same compound, the “Enz R140Q” value on IDH2 R140Q is on record as “No Fit”.

Consider `c1ccc(-c2nc(Nc3ccncc3)nc(N[C@@H]3C[C@@H]4CC[C@H]3C4)n2)cc1` [Compound 295, N^2-((1S,2R,4R)-bicyclo[2.2.1]heptan-2-yl)-6-phenyl-N^4-(pyridin-4-yl)-1,3,5-triazine-2,4-diamine], for which the IC50 (in experiment [1]; on IDH2 R140Q) was under 100 nM in each case.

Consider `c1ccc(Nc2nc(N[C@@H]3C[C@@H]4CC[C@H]3C4)nc(-c3ccccc3)n2)cc1` [Compound 296, N^2-((1S,2R,4R)-bicyclo[2.2.1]heptan-2-yl)-N^4,6-diphenyl-1,3,5-triazine-2,4-diamine], for which the IC50 in experiment [1] is under 100 nM; on IDH2 R140Q, 100 to 1000 nM.

For `c1ccc(-c2nc(Nc3ccncc3)nc(NC3C4COCC43)n2)cc1` (centres unmarked) [Compound 297, N^2-(3-oxabicyclo[3.1.0]hexan-6-yl)-6-phenyl-N^4-(pyridin-4-yl)-1,3,5-triazine-2,4-diamine], the IC50 (in experiment [1]; on IDH2 R140Q) was under 100 nM throughout.

With `CC(C)Nc1nc(Nc2ccnc(N3CCOCC3)c2)nc(-c2ccccc2)n1` [Compound 298, N^2-isopropyl-N^4-(2-morpholinopyridin-4-yl)-6-phenyl-1,3,5-triazine-2,4-diamine], the IC50 (in experiment [1]; on IDH2 R140Q) was under 100 nM in each case.

On to `CC(C)Nc1nc(Nc2ccnc(N3CCC3)c2)nc(-c2ccccc2)n1` [Compound 299, N^2-(2-(azetidin-1-yl)pyridin-4-yl)-N^4-isopropyl-6-phenyl-1,3,5-triazine-2,4-diamine], for which the IC50 in experiment [1] is 100 to 1000 nM; on IDH2 R140Q, under 100 nM.

Consider `c1ccc(-c2nc(NCC3COC3)nc(Nc3ccncc3)n2)cc1` [Compound 300, N^2-(oxetan-3-ylmethyl)-6-phenyl-N^4-(pyridin-4-yl)-1,3,5-triazine-2,4-diamine], for which the IC50 (in experiment [1]; on IDH2 R140Q) was 100 to 1000 nM throughout.

`CC(C)Nc1cc(Nc2nc(NC(C)C)nc(-c3ccccc3)n2)ccn1` [Compound 301, N^2-isopropyl-N^4-(2-(isopropylamino)pyridin-4-yl)-6-phenyl-1,3,5-triazine-2,4-diamine]: the IC50 in experiment [1] is under 100 nM; on IDH2 R140Q, 100 to 1000 nM.

For the compound `CNc1cc(Nc2nc(NC(C)C)nc(-c3ccccc3)n2)ccn1` [Compound 302, N^2-isopropyl-N^4-(2-(methylamino)pyridin-4-yl)-6-phenyl-1,3,5-triazine-2,4-diamine], the figures for the IC50 (in experiment [1]; on IDH2 R140Q) were 100 to 1000 nM and under 100 nM, respectively.

On to `CNc1ccc(Nc2nc(NC(C)C)nc(-c3ccccc3)n2)cn1` [Compound 303, N^2-isopropyl-N^4-(6-(methylamino)pyridin-3-yl)-6-phenyl-1,3,5-triazine-2,4-diamine], for which the “Cell R140Q” value in experiment [1] is listed as “No Fit”. For the same compound, on IDH2 R140Q, the IC50 fell in the range of 1000 to 10000 nM.

For `OC1CCCC(Nc2nc(Nc3ccncc3)nc(-c3ccccc3)n2)C1` (centres unmarked) [Compound 304, 3-(4-phenyl-6-(pyridin-4-ylamino)-1,3,5-triazin-2-ylamino)cyclohexanol], the “Cell R140Q” value in experiment [1] was “No Fit”. Besides, on IDH2 R140Q, the IC50 was 1000 to 10000 nM.

On to `COC1CC(Nc2nc(Nc3ccncc3)nc(-c3ccccc3)n2)C1` (centres unmarked) [Compound 305, N^2-(3-methoxycyclobutyl)-6-phenyl-N^4-(pyridin-4-yl)-1,3,5-triazine-2,4-diamine], for which the “Cell R140Q” value in experiment [1] was “No Fit”. For the same compound, the IC50 at IDH2 R140Q is over 10000 nM.

`CS(=O)(=O)c1cccc(Nc2nc(NC3CCOCC3)nc(-c3ccccc3)n2)c1` [Compound 306]: the figures for the IC50 (in experiment [1]; at IDH2 R140Q) were under 100 nM and 100 to 1000 nM, respectively.

In the case of `CC(C)Nc1nc(Nc2cnn(C)c2)nc(-c2ccccc2)n1` [Compound 308, N^2-isopropyl-N^4-(1-methyl-1H-pyrazol-4-yl)-6-phenyl-1,3,5-triazine-2,4-diamine], the values for the IC50 (in experiment [1]; on IDH2 R140Q) were 100 to 1000 nM and under 100 nM, respectively.

For the compound `CC(C)Nc1nc(Nc2cnoc2)nc(-c2ccccc2)n1` [Compound 309, N^2-isopropyl-N^4-(isoxazol-4-yl)-6-phenyl-1,3,5-triazine-2,4-diamine], the IC50 (in experiment [1]; at IDH2 R140Q) was under 100 nM each time.

Consider `Cc1cc(Nc2nc(NC(C)C)nc(-c3ccccc3)n2)cc(C)n1` [Compound 310, N^2-(2,6-dimethylpyridin-4-yl)-N^4-isopropyl-6-phenyl-1,3,5-triazine-2,4-diamine], for which the results for the IC50 (in experiment [1]; at IDH2 R140Q) were under 100 nM and 100 to 1000 nM, respectively.

Take `CC(C)Nc1nc(Nc2ccc(OCC3CC3)nc2)nc(-c2ccccc2)n1` [Compound 311, N^2-(6-(cyclopropylmethoxy)pyridin-3-yl)-N^4-isopropyl-6-phenyl-1,3,5-triazine-2,4-diamine]: the IC50 (in experiment [1]; on IDH2 R140Q) was 100 to 1000 nM in each case.

Turning to `CC(C)Nc1nc(Nc2ccc(OC(C)C)nc2)nc(-c2ccccc2)n1` [Compound 312, N^2-(6-isopropoxypyridin-3-yl)-N^4-isopropyl-6-phenyl-1,3,5-triazine-2,4-diamine], the values for the IC50 (in experiment [1]; on IDH2 R140Q) were 1000 to 10000 nM and 100 to 1000 nM, respectively.

As for `CC(C)Nc1nc(Nc2cncs2)nc(-c2ccccc2)n1` [Compound 313, N^2-isopropyl-6-phenyl-N^4-(thiazol-5-yl)-1,3,5-triazine-2,4-diamine], the IC50 (in experiment [1]; at IDH2 R140Q) was under 100 nM in each case.

For the compound `CC(C)Nc1nc(Nc2ccncc2C(F)(F)F)nc(-c2ccccc2)n1` [Compound 314, N^2-isopropyl-6-phenyl-N^4-(3-(trifluoromethyl)pyridin-4-yl)-1,3,5-triazine-2,4-diamine], the “Cell R140Q” value in experiment [1] was “No Fit”. In addition, the IC50 at IDH2 R140Q fell in the range of 1000 to 10000 nM.

Turning to `CC(C)Nc1nc(Nc2ccnc(C3CC3)c2)nc(-c2ccccc2)n1` [Compound 315, N^2-(2-cyclopropylpyridin-4-yl)-N^4-isopropyl-6-phenyl-1,3,5-triazine-2,4-diamine], the IC50 (in experiment [1]; on IDH2 R140Q) was under 100 nM in each case.

For the origin of these results see patent US9512107B2, “Therapeutically active compositions and their methods of use” (Agios Pharmaceuticals, Inc., priority 2012, dated 2016).
